{"source": "patent US7312246B2", "about": "“Proteomimetic compounds and methods” (Yale University, priority 2001, dated 2007)", "key": {"[1]": {"assay": "Solubility in buffer", "type": "physicochemical", "conditions": "buffer with <1% DMSO", "text": "For synthetic simplicity we changed the indole of Trp800 to phenyl and removed the hydroxyl of Thr803. Using Negishi couplings of differently substituted phenyltriflates, we prepared terphenyl a as a mimic of the calmodulin binding face of smMLCK."}, "[2]": {"molecular_target": "T1, calmodulin (CaM) (Homo sapiens, UniProt P0DP23)", "assay": "Antagonism of CaM activation of phosphodiesterase (PDE), monitored by hydrolysis of mant-cGMP", "type": "biochemical", "conditions": "for IC50: 13.9 nM CaM, 50 mu/ml PDE, 8 μM mant-cGMP, pH 7.0, read-out: IC50, inhibition of CaM activation of PDE", "quoted_text": "13.9 nM CaM, 50 mu/ml PDE, 8 μM mant-cGMP, 10 mM Mops, 0.5 mM MgCl2, 90 mM KCl, 0.73 mM CaCl2, 0.2% DMSO, pH 7.0."}, "[3]": {"molecular_target": "T1, calmodulin (CaM)", "assay": "Avidin-based affinity resin derivatized with biotinylated CaM: retention of compound", "type": "binding", "text": "Discrete complex formation to CaM was indicated by the release of a from the column, as monitored by HPLC, on elution with […] biotin. […] To amplify the binding event between CaM and a, an enzymatic assay was also employed."}, "[4]": {"molecular_target": "T2, gp41 core model (N36/C34 six helix bundle) (Human immunodeficiency virus type 1 group M subtype B, UniProt P04578)", "T2 construct": "two peptides (N36 and C34), from the N and C heptad repeat regions of gp41; purchased HHMI Biopolymer/Keck Foundation Biotechnology Resource Center, Yale University School of Medicine; host or cells: synthetic peptides", "T2 sequence (P04578 546-581)": "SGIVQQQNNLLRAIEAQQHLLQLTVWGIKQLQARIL", "type": "binding, HIV-1", "conditions": "10 μM gp41 core model, 50 mM PBS, 150 mM NaCl, pH 7.0, 4° C.", "text": "Spectra were corrected by the subtraction of a blank corresponding to the solvent composition of each sample."}, "[5]": {"molecular_target": "T1, calmodulin (CaM)", "assay": "Polyacrylamide gel permeation chromatography (6 kD cutoff) with and without CaM", "type": "binding", "conditions": "70 μM in buffer"}, "[6]": {"molecular_target": "Bcl-xL (Homo sapiens, UniProt Q07817)", "sequence (Q07817 whole entry)": "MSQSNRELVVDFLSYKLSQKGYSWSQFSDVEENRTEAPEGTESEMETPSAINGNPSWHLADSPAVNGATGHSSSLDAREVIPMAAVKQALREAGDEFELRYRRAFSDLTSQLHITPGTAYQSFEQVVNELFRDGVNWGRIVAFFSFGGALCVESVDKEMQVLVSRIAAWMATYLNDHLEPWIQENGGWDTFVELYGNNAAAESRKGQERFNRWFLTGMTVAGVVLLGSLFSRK", "assay": "Fluorescence polarization assay: displacement of fluorescein-labeled 16-mer Bak-peptide from Bcl-xL", "type": "binding", "conditions": "for binding affinity for Bcl-xL (in words): compared with m", "method": "Based on these structural requirements we designed a series of terphenyl molecules (k-n) containing alkyl or aryl substituents on the three ortho positions (to mimic the key i, i+3, and i+7 groups in Bak or Bad) and carboxylic acid substituents on either end (to mimic the additional ion pair) (FIG. 17). The binding affinity of these molecules for Bcl-xL was assessed by a fluorescence polarization assay using fluoresceine-labeled 16-mer Bak-peptide. Displacement of this probe through competitive binding of the terphenyl into the hydrophobic cleft of BCl-xL would lead to a decrease in its fluorescence polarization which in turn could be related to the known affinity of the 16-mer Bak/Bcl-xL complex."}}, "data": [{"compound": "CCc1cc(-c2ccc(OCC(=O)O)cc2C(C)C)ccc1-c1cccc(Cc2ccccc2)c1.N", "note": "[48.NH4, Ammonium (3-benzyl-2′-ethyl-2″-isopropyl-[1,1′:4′,1″]terphenyl-4″-yloxy)-acetate]", "values": [{"measurement": "solubility in buffer", "setting": "[1]", "result": "surprisingly soluble in buffer with <1% DMSO"}]}, {"compound": "CCc1cc(-c2ccc(OCC(=O)O)cc2C(C)C)ccc1-c1cccc(Cc2ccccc2)c1", "note": "[a, (3-Benzyl-2′-ethyl-2″-isopropyl-[1,1′:4′,1″]terphenyl-4″-yloxy)-acetic acid]", "values": [{"measurement": "IC50", "setting": "[2]", "result": 800, "unit": "nM"}, {"measurement": "inhibitory potency, fold less than RS20", "setting": "[2]; relative to 20-mer peptide RS20", "result": 10, "unit": "fold"}, {"measurement": "retention on avidin affinity resin derivatized with biotinylated CaM", "setting": "[3]; CaM-derivatized resin", "result": "retention of the terphenyl on the column"}, {"measurement": "retention on underivatized avidin resin (control experiment)", "setting": "[3]; underivatized avidin resin", "result": "no observable retention"}]}, {"compound": "CCc1cc(-c2ccc(OCC(=O)O)cc2C(C)C)ccc1-c1cccc(Cc2cccc3ccccc23)c1", "note": "[b, (2′-Ethyl-2″-isopropyl-3-naphthalen-1-ylmethyl-[1,1′:4′,1″]terphenyl-4″-yloxy)-acetic acid]", "values": [{"measurement": "IC50", "setting": "[2]", "result": 9, "unit": "nM"}, {"measurement": "potency, fold improvement over RS20", "setting": "[2]; relative to helical peptide RS20", "result": 8, "unit": "fold"}]}, {"compound": "CCc1cc(-c2ccc(OCC(=O)O)cc2C(C)C)ccc1-c1cccc(Cc2ccc3ccccc3c2)c1", "note": "[c, (2′-Ethyl-2″-isopropyl-3-naphthalen-2-ylmethyl-[1,1′:4′,1″]terphenyl-4″-yloxy)-acetic acid]", "values": [{"measurement": "IC50", "setting": "[2]", "result": 20, "unit": "nM"}]}, {"compound": "CC(C)Cc1cc(-c2ccc(-c3ccc(CCCN)cc3CC(C)C)cc2C(C)C)ccc1OCCN.Cl.Cl", "note": "[g, 3-[4″-(2-aminoethoxy)-2,3″-diisobutyl-3′-isopropyl-1,1′:4′,1″-terphenyl-4-yl]propan-1-amine dihydrochloride]", "values": [{"measurement": "effect on CD spectrum of gp41 core model (helicity of the hexameric bundle)", "setting": "[4]", "result": "little effect on the protein CD spectrum even at high concentrations"}, {"measurement": "behaviour on gel permeation column, compound alone", "setting": "[5]; alone", "result": "retained on the column"}, {"measurement": "behaviour on gel permeation column, mixed with one equivalent of CaM", "setting": "[5]; one equivalent of CaM", "result": "passed through"}]}, {"compound": "O=C(O)CCc1ccc(-c2ccc(OCC(=O)O)cc2)cc1", "note": "[i, 3-[4′-(carboxymethoxy)-1,1′-biphenyl-4-yl)propanoic acid]", "values": [{"measurement": "effect on CD spectrum of gp41 core model (helicity of the hexameric bundle)", "setting": "[4]", "result": "little effect on the protein CD spectrum even at high concentrations"}]}, {"compound": "CC(C)Cc1cc(CCC(=O)O)ccc1-c1ccc(-c2ccc(OCC(=O)O)c(Cc3ccccc3)c2)c(Cc2ccccc2)c1", "note": "[j, 3-(3′,3″-dibenzyl-4″-(carboxymethoxy)-2-isobutyl-1,1′:4′,1″-terphenyl-4-yl)propanoic acid]", "values": [{"measurement": "effect on CD spectrum of gp41 core model (helicity of the hexameric bundle)", "setting": "[4]", "result": "modest enhancement in activity compared to f"}]}, {"compound": "CC(C)Cc1cc(-c2ccc(-c3ccc(CCC(=O)O)cc3CC(C)C)cc2Cc2ccccc2)ccc1OCC(=O)O", "note": "[l, 3-(3′-Benzyl-4″-(carboxymethoxy)-2,3″-diisobutyl-1,1′4″1″-terphenyl-4-yl)propanoic acid]", "values": [{"measurement": "binding affinity for Bcl-xL (in words)", "setting": "[6]", "result": "less binding affinity"}]}, {"compound": "CC(C)Cc1cc(-c2ccc(-c3ccc(CCC(=O)O)cc3CC(C)C)cc2Cc2cccc3ccccc23)ccc1OCC(=O)O", "note": "[m, 3-(4-(Carboxymethoxy)-3,2″-diisobutyl-2′-naphthalen-1-ylmethyl-[1,1′:4′,1″]-terphenyl-4″-yl)propionic acid]", "values": [{"measurement": "Kd", "setting": "[6]; related to known affinity of 16-mer Bak/Bcl-xL complex, read-out: KD-value, binding to Bcl-xL", "result": 114, "unit": "nM"}]}, {"compound": "CC(C)Cc1cc(CCC(=O)O)ccc1-c1ccc(-c2ccc(OCC(=O)O)c(Cc3cccc4ccccc34)c2CC(C)C)cc1", "note": "[n, 3-(4-(Carboxymethoxy)-2,2″-diisobutyl-3-naphthalen-1-ylmethyl-[1,1′:4′,1″]-terphenyl-4″-yl)propionic acid]", "values": [{"measurement": "binding affinity for Bcl-xL (in words)", "setting": "[6]", "result": "significant loss in binding affinity"}]}, {"compound": "Bis methyl 3-(1,1′:4′,1″-terphenyl-4,4″-yl)propanoic acid", "values": [{"measurement": "effect on CD spectrum of gp41 core model (helicity of the hexameric bundle)", "setting": "[4]", "result": "little effect on the protein CD spectrum even at high concentrations"}]}]}
